# US12459951B2, “Compounds that interact with RAS superfamily proteins for treatment of cancers, inflammatory diseases, rasopathies, and fibrotic disease” (SHY Therapeutics, LLC, priority 2022, dated 2025)
# Tests used:
# [1] = test system: Akt phosphorylation; assay: Akt Phosphorylation Assay (western blot), Panc-1; type: cell-based, human; details: at 10 μM, * = activation
# Experimental: Protocol for Western Akt Cell-Based Phosphorylation Assay
# This assay is referred to as the “Akt Phosphorylation Assay” throughout this application.
# Human tumor-derived pancreatic cancer cell line Panc-1 (expressing KRas G12D mutant) was purchased from American Type Culture Collection and grown in complete DMEM-High Glucose supplemented with penicillin (100 U/mL), streptomycin (100 μg/mL), and 10% heat-inactivated FBS at 37° C. in a humidified incubator with 5% CO2.
# Method 1: Cells were plated at 350000 cells/well density in a 12-well plate, allowed 3 hours to adhere to the plate, then starved in the appropriate medium in the presence of 0.5% FBS overnight. The small molecules to be tested were added to the cells in the final concentration of 10 μM in the presence of 0.3% DMSO for 6 hours incubation at 37° C. Next, cells were stimulated with 1.5 ng/ml EGF for 15 minutes then cells were lysed with lysis buffer containing 1% Triton X-100, EDTA, and Halt™ Protease & Phosphatase Inhibitor Cocktail (Thermo Scientific). Protein concentration was assessed by BCA protein assay (Thermo Scientific). Phosphorylation level of Akt was determined by western blot.
# Method 2: Cells were plated at 350000 cells/well density in a 12-well plate in 10% FBS. The next day small molecules to be tested were added to the cells in the final concentration of 10 μM in the presence of 0.3% DMSO for 6 hours incubation at 37° C. For IC50 value determination, serial dilutions of compounds were added to cells under the same conditions. Next, cells were lysed with lysis buffer containing 1% Triton X-100, EDTA, and Halt™ Protease & Phosphatase Inhibitor Cocktail (Thermo Scientific). Protein concentration was assessed by BCA protein assay (Thermo Scientific). Phosphorylation level of Akt was determined by western blot.
# Western blot protocol: Equal amounts of protein (15-50 μg) were separated by SDS-PAGE and transferred to nitrocellulose membranes (Invitrogen by Thermo Fisher Scientific). The membrane was stained with Ponceau S Stain (Boston BioProducts) to verify uniform protein loading. Membranes were blocked with 10% milk and phosphorylation levels of Akt were assessed by incubating overnight at 4° C. with anti-phospho-Akt (Ser473) antibody (Cell Signaling) followed by HRP-conjugated secondary antibody (Jackson Immunoresearch, West Grove, PA). Bands were incubated in Amersham ECL Prime Western Blotting Detection Reagent (GE Healthcare) and visualized using the ChemiDoc MP imaging system (Bio-Rad).
# [2] = test system: IL6; assay: IL-6 Quantification Assay (ELISA), LPS-stimulated RAW 264.7; type: cell-based; design: inhibition: dose or concentration left out as unconfirmed; details: Mus musculus, RAW264.7; read-out: IL-6: % inh.
# [3] = test system: TNF-alpha; assay: TNF-alpha Quantification Assay (ELISA), LPS-stimulated RAW 264.7; type: cell-based; details: Mus musculus, RAW264.7; at 10 μM; read-out: TNFα: % inh.
Compound,% inh of Akt phosphorylation in Panc-1 [1],inhibition [2] [%],inhibition at 10 µM [3] [%]
"COc1cc(Nc2nc(-c3nccn3C)nn3cc(-c4ccn(C5CC5)n4)c(C)c23)ncn1 [Compound 135, 6-(1-Cyclopropyl-1H-pyrazol-3-yl)-N-(6-methoxypyrimidin-4-yl)-5-methyl-2-(1-methyl-1H-imidazol-2-yl)pyrrolo[2,1-f][1,2,4]triazin-4-amine]",D* (85-100% activation),25 to 49,1 to 24
"Cc1c(-c2ccn(C)n2)cn2nc(-c3nccn3C)nc(Nc3cc(OC(C)C)ccn3)c12 [Compound 136, N-(4-Isopropoxypyridin-2-yl)-5-methyl-2-(1-methyl-1H-imidazol-2-yl)-6-(1-methyl-1H-pyrazol-3-yl)pyrrolo[2,1-f][1,2,4]triazin-4-amine]",D* (85-100% activation),25 to 49,1 to 24
"Cc1c(-c2ccn(C3CC3)n2)cn2nc(-c3nccn3C)nc(Nc3cc(OC(F)(F)F)ccn3)c12 [Compound 138, 6-(1-Cyclopropyl-1H-pyrazol-3-yl)-5-methyl-2-(1-methyl-1H-imidazol-2-yl)-N-(4-(trifluoromethoxy)pyridin-2-yl)pyrrolo[2,1-f][1,2,4]triazin-4-amine]",D* (85-100% activation),50 to 74,0
"Cc1c(-c2ccn(C3CC3)n2)cn2nc(-c3nccn3C)nc(Nc3cc(OC(F)F)ccn3)c12 [Compound 139, 6-(1-Cyclopropyl-1H-pyrazol-3-yl)-N-(4-(difluoromethoxy)pyridin-2-yl)-5-methyl-2-(1-methyl-1H-imidazol-2-yl)pyrrolo[2,1-f][1,2,4]triazin-4-amine]",D* (85-100% activation),50 to 74,1 to 24
"Cc1c(-c2ccn(C3CC3)n2)cn2nc(-c3nccn3C)nc(Nc3cc(OCC(F)(F)F)ccn3)c12 [Compound 140, 6-(1-Cyclopropyl-1H-pyrazol-3-yl)-5-methyl-2-(1-methyl-1H-imidazol-2-yl)-N-(4-(2,2,2-trifluoroethoxy)pyridin-2-yl)pyrrolo[2,1-f][1,2,4]triazin-4-amine]",D* (85-100% activation),50 to 74,0
"Cc1c(-c2ccn(C3CC3)n2)cn2nc(-c3nccn3C)nc(Nc3cc(OCCO)ccn3)c12 [Compound 146, 2-((2-((6-(1-Cyclopropyl-1H-pyrazol-3-yl)-5-methyl-2-(1-methyl-1H-imidazol-2-yl)pyrrolo[2,1-f][1,2,4]triazin-4-yl)amino)pyridin-4-yl)oxy)ethan-1-ol]",D* (85-100% activation),0,1 to 24
"Cc1c(-c2ccn(C3CC3)n2)cn2nc(-c3nccn3C)nc(Nc3cc(OCCN(C)C)ccn3)c12 [Compound 147, 6-(1-Cyclopropyl-1H-pyrazol-3-yl)-N-(4-(2-(dimethylamino)ethoxy)pyridin-2-yl)-5-methyl-2-(1-methyl-1H-imidazol-2-yl)pyrrolo[2,1-f][1,2,4]triazin-4-amine]",A* (1-25% activation),0,1 to 24
"Cc1c(-c2ccn(C3CC3)n2)cn2nc(-c3nccn3C)nc(Nc3cc(OCCCN(C)C)ccn3)c12 [Compound 148, 6-(1-Cyclopropyl-1H-pyrazol-3-yl)-N-(4-(3-(dimethylamino)propoxy)pyridin-2-yl)-5-methyl-2-(1-methyl-1H-imidazol-2-yl)pyrrolo[2,1-f][1,2,4]triazin-4-amine]",A (1-25% inhibition),1 to 24,1 to 24
"Cc1c(-c2ccn(C3CC3)n2)cn2nc(-c3nccn3C)nc(Nc3cc(OCCCO)ccn3)c12 [Compound 149, 3-((2-((6-(1-Cyclopropyl-1H-pyrazol-3-yl)-5-methyl-2-(1-methyl-1H-imidazol-2-yl)pyrrolo[2,1-f][1,2,4]triazin-4-yl)amino)pyridin-4-yl)oxy)propan-1-ol]",D* (85-100% activation),75 to 100,75 to 100
"Cc1c(-c2ccn(C3CC3)n2)cn2nc(-c3nccn3C)nc(Nc3cc(O)ccn3)c12 [Compound 150, 2-((6-(1-Cyclopropyl-1H-pyrazol-3-yl)-5-methyl-2-(1-methyl-1H-imidazol-2-yl)pyrrolo[2,1-f][1,2,4]triazin-4-yl)amino)pyridin-4-ol]",B* (26-49% activation),1 to 24,0
"CO[C@H]1C[C@H](Nc2nc(-c3nccn3C)nn3cc(-c4cccnc4)c(C)c23)C1 [Compound 151, N-((1r,3r)-3-Methoxycyclobutyl)-5-methyl-2-(1-methyl-1H-imidazol-2-yl)-6-(pyridin-3-yl)pyrrolo[2,1-f][1,2,4]triazin-4-amine]",C* (46-84% activation),0,0
"COCCO[C@H]1C[C@H](Nc2nc(-c3nccn3C)nn3cc(-c4cccnc4)c(C)c23)C1 [Compound 152, N-((1r,3r)-3-(2-methoxyethoxy)cyclo-butyl)-5-methyl-2-(1-methyl-1H-imidazol-2-yl)-6-(pyridin-3-yl)pyrrolo[2,1-f][1,2,4]triazin-4-amine]",B* (26-49% activation),1 to 24,0
"CO[C@H]1C[C@@H](Nc2nc(-c3nccn3C)nn3cc(-c4cccnc4)c(C)c23)C1 [Compound 153, N-((1s,3s)-3-methoxy-cyclobutyl)-5-methyl-2-(1-methyl-1H-imidazol-2-yl)-6-(pyridin-3-yl)pyrrolo[2,1-f][1,2,4]triazin-4-amine]",B (26-49% inhibition),0,0
"CO[C@H]1C[C@H](Nc2nc(-c3nccn3C)nn3cc(-c4ccncc4)c(C)c23)C1 [Compound 159, N-((1r,3r)-3-Methoxycyclobutyl)-5-methyl-2-(1-methyl-1H-imidazol-2-yl)-6-(pyridin-4-yl)pyrrolo[2,1-f][1,2,4]triazin-4-amine]",B (26-49% inhibition),1 to 24,0
"COc1cc(-c2cn3nc(-c4nccn4C)nc(N[C@H]4C[C@H](OC)C4)c3c2C)ccn1 [Compound 160, N-((1r,3r)-3-Methoxycyclobutyl)-6-(2-methoxypyridin-4-yl)-5-methyl-2-(1-methyl-1H-imidazol-2-yl)pyrrolo[2,1-f][1,2,4]triazin-4-amine]",B* (26-49% activation),75 to 100,25 to 49
"COCCO[C@H]1C[C@H](Nc2nc(-c3nccn3C)nn3cc(-c4ccnc(OC)c4)c(C)c23)C1 [Compound 161, N-((1r,3r)-3-(2-Methoxy-ethoxy)cyclo-butyl)-6-(2-methoxy-pyridin-4-yl)-5-methyl-2-(1-methyl-1H-imidazol-2-yl)pyrrolo[2,1-f][1,2,4]triazin-4-amine]",A* (1-25% activation),75 to 100,50 to 74
